# According to US20250312469A1 (CANGET BIOTEKPHARMA, priority 2024, published 2025):
# Tests used:
# [1] = Liver microsome stability; conditions: for microsomal CLint at 0.5 μM / half-life at 0.5 μM: both; for microsomal CLint at 0.5 μM: CLint (intrinsic clearance); for microsomal CLint at 0.5 μM / half-life at 0.5 μM / % Remaining of Initial (n = 1): human liver microsome
# [2] = Plasma stability; type: in vitro ADME, human
# Method: Both matrices were adjusted to pH 7.4 prior to initiating the experiments. A DMSO stock as first prepared for the test article. […] The vials were kept in a benchtop Thermomixer for the duration of the experiment. Aliquots (100 μL) were taken at each time point (0, 15, 30, 60, and 120 minutes) and added to 96-well plates which had been pre-filled with 300 μL of acetonitrile (ACN). Samples were stored at 4° C. until the end of the experiment. […] Analytical conditions are outlined in Appendix 1.
# [3] = test system: CYP1A2 mRNA; test: CYP induction (mRNA) in fresh human hepatocytes
# Text: (§1) (2) CYP positive inducers (Table 58a) and Williams' Medium E (WME) were purchased from Sigma-Aldrich (St. Louis, MO, USA). Dulbecco's phosphate-buffered saline (DPBS, pH 7.4) was purchased from Invitrogen (Carlsbad, CA, USA). Hepatocyte culture medium (serum-free) for CYP induction was purchased from XenoTech (catalog #K2300, Lenexa, KS, USA). The CellTiter 96 AQueous ONE Solution Cell Proliferation Assay was obtained from Promega (Madison, WI, USA). All other chemicals and reagents were of analytical grade or higher. (3) Fresh human hepatocytes (Table 58b) seeded at ˜0.15 million cells/well in 48-well plates (˜0.75 million cells/mL) were purchased from Thermo Fisher Scientific (Grand Island, NY, USA) and BioreclamationIVT (Baltimore, MD, USA).
# (§2) Vehicle controls were treated in parallel with hepatocyte culture medium. […] (2) After the CYP induction treatment, the cells were used for a cell viability assay. […] The absorbance of formazan, which is proportional to the number of viable cells, was measured spectrophotometrically using the CellTiter 96 AQueous ONE Solution Cell Proliferation Assay. […] (3) Total RNA was isolated from the treated cells using the RNeasy mini kit (Qiagen, Valencia, CA, USA) and treated with RNase-free DNase (Qiagen) following the manufacturer's protocols. The concentration of RNA was determined using a Qubit Fluorometer with a Qubit RNA HS assay kit (Invitrogen). cDNA was synthesized from up to 1 μg of the total RNA harvested from the cells using a QuantiTect RT kit (Qiagen). Analysis of gene expression by qPCR was performed using the LightCycler 480 System (Roche Diagnostics Corporation, Indianapolis, IN, USA).
# [4] = test system: CYP2B6 mRNA; test: CYP induction (mRNA) in fresh human hepatocytes
# Text: as §1, §2
# [5] = biological target: T1, USP2a (Homo sapiens, UniProt O75604); test: 3H-FL118 binding, Nanosep 3K centrifugal device; parameters: host or cells: HEK293T
# T1 sequence (O75604 1-605): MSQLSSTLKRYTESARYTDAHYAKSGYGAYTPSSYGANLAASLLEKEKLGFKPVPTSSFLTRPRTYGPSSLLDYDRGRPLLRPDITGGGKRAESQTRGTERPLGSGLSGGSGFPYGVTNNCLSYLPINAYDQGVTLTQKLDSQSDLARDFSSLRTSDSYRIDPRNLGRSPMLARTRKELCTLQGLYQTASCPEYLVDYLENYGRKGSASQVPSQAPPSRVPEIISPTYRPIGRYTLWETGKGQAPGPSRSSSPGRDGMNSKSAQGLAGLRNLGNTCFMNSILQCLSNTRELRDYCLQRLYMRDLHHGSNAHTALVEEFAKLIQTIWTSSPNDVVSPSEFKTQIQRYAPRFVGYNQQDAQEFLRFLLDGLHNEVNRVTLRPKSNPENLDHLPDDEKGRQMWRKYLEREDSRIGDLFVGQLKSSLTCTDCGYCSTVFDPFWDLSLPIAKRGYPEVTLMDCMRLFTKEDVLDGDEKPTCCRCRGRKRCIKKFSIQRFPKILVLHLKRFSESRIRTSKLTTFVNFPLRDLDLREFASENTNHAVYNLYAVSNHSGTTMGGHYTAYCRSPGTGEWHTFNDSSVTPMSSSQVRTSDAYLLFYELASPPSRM
# Method: (§3) Then, 5-10 μg of the FLAGR M Purification Kit (Signa)-purified Flag-USP2a and Flag-UbE2T proteins in a volume of 20-50 μL, respectively, was transferred into the sample reservoir of a 1.5 mL Nanosep 3K Centrifugal Device. In parallel, a negative control Nanosep 3K Centrifugal Devices containing 10 μg bovine serum albumin (BSA) in 50 μL volume was also set up. Then, the 3 prepared Nanosep 3K Devices were centrifuged at 10,000 rpm for 10-15 min to eliminate the solution and retain the proteins in the sample reservoir. […] Lastly, all three of the sample reservoir devices were transferred into a scintillation vial containing enough scintillation solution to cover the entire sample reservoir devices for tritium (3H) counting on the LS 6500 Scintillation System (Backman Couler™).
# [6] = biological target: T2, UbE2T (Homo sapiens, UniProt Q9NPD8); test: 3H-FL118 binding, Nanosep 3K centrifugal device; parameters: host or cells: HEK293T; conditions: hot FL118 solution 10 μM
# T2 sequence (Q9NPD8 1-197): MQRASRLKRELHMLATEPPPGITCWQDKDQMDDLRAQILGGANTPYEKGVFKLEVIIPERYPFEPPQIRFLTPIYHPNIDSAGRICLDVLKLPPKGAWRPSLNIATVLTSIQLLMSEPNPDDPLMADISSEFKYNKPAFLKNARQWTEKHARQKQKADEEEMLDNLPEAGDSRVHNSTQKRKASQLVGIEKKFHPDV
# Method: as §3
compound,measurement,setting,value
CCC1(O)C(=O)OCc2c1cc1n(c2=O)Cc2cc3cc4c(cc3nc2-1)OCO4 (centres unmarked) [FL118],microsomal CLint at 0.5 μM,"[1]; human, microsomes, calculated (in parentheses)",18.6 µL/min/mg
same,microsomal CLint at 0.5 μM,"[1]; human, microsomes, bound",< 23.1 µL/min/mg
same,half-life at 0.5 μM,"[1]; human, microsomes, calculated (in parentheses), calculated half-life longer than the experiment",1.25 h
same,half-life at 0.5 μM,"[1]; human, microsomes, expressed as > the longest incubation time (60 min)",> 1 h
same,% Remaining of Initial (n = 1),[1]; 0 min,100%
same,% Remaining of Initial (n = 1),[1]; 10 min,93%
same,% Remaining of Initial (n = 1),[1]; 20 min,82%
same,% Remaining of Initial (n = 1),[1]; 30 min,76%
same,% Remaining of Initial (n = 1),[1]; 60 min,58%
same,half-life,"[1]; human, microsomes",long half-life
same,half-life,[2]; 0.5 μM,long half-life
same,Percent Remaining,"[2]; Human Plasma, 0 min",100%
same,Percent Remaining,"[2]; Human Plasma, 15 min",111%
same,Percent Remaining,"[2]; Human Plasma, 30 min",110%
same,Percent Remaining,"[2]; Human Plasma, 60 min",94%
same,Percent Remaining,"[2]; Human Plasma, 120 min",26%
same,half-life at 0.5 μM,"[2]; both sexes, plasma (sodium heparin), pH 7.4, Human Plasma",1.53 h
same,% of OME-treated Cells,"[3]; donor 1, 0.01 μM",0.15%
same,induction of CYP1A2 mRNA,"[3]; donor 1, 0.01 μM",< 2 fold
same,% of OME-treated Cells,"[3]; donor 1, 0.1 μM",1.1%
same,induction of CYP1A2 mRNA,"[3]; donor 1, 0.1 μM",2.0 fold
same,% of OME-treated Cells,"[3]; donor 1, 1 μM",2.6%
same,induction of CYP1A2 mRNA,"[3]; donor 1, 1 μM",3.4 fold
same,% of OME-treated Cells,"[3]; donor 2, 0.001 μM",0.88%
same,induction of CYP1A2 mRNA,"[3]; donor 2, 0.001 μM",2.3 fold
same,% of OME-treated Cells,"[3]; donor 2, 0.005 μM",1.0%
same,induction of CYP1A2 mRNA,"[3]; donor 2, 0.005 μM",2.5 fold
same,% of OME-treated Cells,"[3]; donor 2, 0.01 μM",2.6%
same,induction of CYP1A2 mRNA,"[3]; donor 2, 0.01 μM",4.9 fold
same,% of OME-treated Cells,"[3]; donor 3, 0.025 μM",1.6%
same,induction of CYP1A2 mRNA,"[3]; donor 3, 0.025 μM",2.0 fold
same,% of OME-treated Cells,"[3]; donor 3, 0.05 μM",1.6%
same,induction of CYP1A2 mRNA,"[3]; donor 3, 0.05 μM",2.1 fold
same,% of PB-treated Cells,"[4]; Donor 1, 0.01 μM, negative values treated as zero",0%
same,% of PB-treated Cells,"[4]; Donor 1, 0.1 μM, negative values treated as zero",0%
same,% of PB-treated Cells,"[4]; Donor 1, 1 μM, negative values treated as zero",0%
same,% of PB-treated Cells,"[4]; Donor 3, 0.025 μM, negative values treated as zero",0%
same,% of PB-treated Cells,"[4]; Donor 3, 0.05 μM, negative values treated as zero",0%
same,induction of CYP2B6 mRNA,"[4]; donor 1, 0.01, 0.1, 1 μM",did not increase CYP2B6 mRNA
same,% of PB-treated Cells,"[4]; donor 2, 0.001 μM",0.70%
same,% of PB-treated Cells,"[4]; donor 2, 0.005 μM",0.43%
same,% of PB-treated Cells,"[4]; donor 2, 0.01 μM",0.11%
same,induction of CYP2B6 mRNA,"[4]; donor 2, 0.001, 0.005, 0.01 μM",did not increase CYP2B6 mRNA
same,induction of CYP2B6 mRNA,"[4]; donor 3, 0.025, 0.05 μM",did not increase CYP2B6 and CYP3A4 mRNA
same,binding of 3H-FL118 to USP2a and UbE2T versus BSA,[5]; 3H counts per min,10-20 fold
same,3H CPM counts in retained parts,[5]; hot FL118 solution 10 μM,"97,436 ± 2960 CPM"
same,3H CPM counts in retained parts,[6],"52,382 ± 1930 CPM"
